Consider four compounds from patent US20110021483A1, “Platinum (IV) Complexes” (PLATCO TECHNOLOGIES (PROPRIETARY) LIMITED, priority 2007, published 2011).

The test system of one data set is HeLa cells. Description: Percent inhibition of HeLa cells at single concentration, 48 h. In kind it is cell-based. As for the experimental part:
The anticancer activity of cis-diammineoxalatochloronitroplatinum(IV) (complex I-A) has been compared to cisplatin against two cell lines for 48 h at 77 uM.

The subject of the next data set is MCF7 cancer cells. Kind of data set: Anticancer activity, IC50 from dose response curves, MCF7 cells. In kind it is cell-based. Conditions: concentrations 100, 50, 25, 10, 5 and 1 μM.
For another data set, the system named is Hela cancer cells. Description: Anticancer activity, IC50 from dose response curves, HeLa cells. In kind it is cell-based. Conditions: concentrations 100, 50, 25, 10, 5 and 1 μM.
For another data set, the system named is HT29 cancer cells. Description: Anticancer activity, IC50 from dose response curves, HT29 cells. In kind it is cell-based. Conditions: concentrations 100, 50, 25, 10, 5 and 1 μM.
The next data set relates to MCF7 cells. Kind of data set: Percent inhibition of MCF7 cells at single concentration, 48 h. In kind it is cell-based.
A short description of a further data set: physchem. The settings on record: water.
Data set [1] in a line: Stability: reduction by cysteine followed by positive ion mass spectra. In kind it is physicochemical. Conditions: water/37° C./18 h, presence of cysteine. The text has this:
This observation implies that certain platinum(IV) complexes described herein are capable of converting to their corresponding platinum(II) complexes.

Data set [2] is described as follows: Thermal stability of the solid complex. In kind it is physicochemical.

Usually IC50 stands for the point on the concentration scale where inhibition reaches its midpoint. Higher therefore signals a need for much substance. By solubility is commonly meant how much of the substance goes into solution per volume. A high value points to a readily soluble substance.

Procedure for HT29 cancer cells: (§1) All Dose response curves were prepared for each of the chosen complexes, as well as positive controls, in order to obtain IC50 values. The concentrations used were 100, 50, 25, 10, 5 and 1 μM. IC50 values were calculated from the log-dose response curves using GraphPad Prism 4.
Procedure for Hela cancer cells: as §1
Procedure for MCF7 cancer cells: as §1

Consider `N.N.[Cl][Pt][Cl]` [Cisplatin, cisplatin], for which the “Percent inhibition of HeLa cells” value was found to be 86% in the data set with HeLa cells (48 h at 50 uM) and 87% with HeLa cells (48 h at 77 uM). Also, the IC50 with MCF7 cancer cells is 14.1 µM; in the data set on Hela cancer cells, 10.7 µM; in the data set on HT29 cancer cells, 8.11 µM. In addition, the entries for the “Percent inhibition of MCF7 cells” value with MCF7 cells (48 h at 50 uM) and in the data set on MCF7 cells (48 h at 77 uM) were 72% and 76%, respectively.

Regarding `O=C1[O][Pt-2]2([NH2+]C3CCCC[C@H]3[NH2+]2)[O]C1=O` (stereo in doubt) [Oxaliplatin, (trans-l-1,2-diaminocyclohexane)oxalatoplatinum(II)], the half-maximal inhibitory concentration (IC50) in the data set on MCF7 cancer cells came to 6.21 µM; with Hela cancer cells, 11.9 µM; in the data set on HT29 cancer cells it was 12.3 µM.

Consider `[NH2][Pt]1([NH2])([Cl])([N+](=O)[O-])[O]C(=O)C(=O)[O]1` [I-A, cis-diammineoxalatochloronitroplatinum(IV)], for which the solubility in “physchem” worked out at 2400 µg/mL.

As for `NC1CCCCC1N.O=C([O-])C(=O)[O-].O=N[O-].[Cl-].[Pt+4]` (stereo not drawn) [II-A, (trans-l-1,2-diaminocyclohexane)oxalatochloronitro-platinum(IV)], the IC50 with MCF7 cancer cells is 5.86 µM; in the data set on Hela cancer cells, 4.81 µM; with HT29 cancer cells, 3.07 µM. Moreover, in data set [1], the “Reduction to platinum(II) complex upon addition of cysteine” value is given as “oxaliplatin is formed”. The “Solid complex stable up to (temperature)” value in data set [2] is “up to 210 °C”.
